Measured values from patent US4948791A, “Novel Cytotoxic cyclic depsipeptides from the tunicate trididemnum solidum” (priority 1989, dated 1990).
In brackets after ≈: the same amount, converted by molar mass. Numbered stars: 1 amine (or outer) side, 2 acyl side, 3 side chain; on linkers, the order of the positions; unused ones are H or OH. Bridge positions count the residues as written; N and C are the ends. Square brackets hold non-standard residues; d marks the D form. Peptide text beside a SMILES is read from it. X1 = CC[C@H](C)[C@@H](N[*:1])[C@@H](O)CC(=O)O[C@H](C(=O)[C@H](C)C(=O)[*:2])C(C)C; NMeY = CN[C@@H](Cc1ccc(O)cc1)C(=O)O; dNMeL = CN[C@H](CC(C)C)C(=O)O

System: L1210 mouse leukemia cells
Assay: Three-day L1210 cell growth inhibition assay (at 37° C.)
Type: cell-based
Conditions: for growth of L1210 mouse leukemia cells in vitro: statement in words
Procedure: Three-day L1210 cell growth inhibition assay (at 37° C.)

[1] = three-day L1210 cell growth inhibition, 37° C., first ID50/ID90 column pair of Table 1
[2] = three-day L1210 cell growth inhibition, 37° C., second ID50/ID90 column pair of Table 1
[3] = three-day L1210 cell growth inhibition assay

Row | Compound | ID50 [1] [ng/mL] | ID90 [1] [ng/mL] | ID50 [2] [ng/mL] | ID90 [2] [ng/mL] | growth of L1210 mouse leukemia cells in vitro | ID50 [3] [ng/mL]
1 | didemnin D | 3.4 | 15 | 4.2 | 16 | – | –
2 | CC[C@H](C)[C@H]1NC(=O)[C@@H](NC(=O)[C@@H](CC(C)C)NC)[C@@H](C)OC(=O)[C@H](Cc2ccc(OC)cc2)N(C)C(=O)[C@@H]2CCCN2C(=O)[C@H](CC(C)C)NC(=O)[C@@H](C)C(=O)[C@H](C(C)C)OC(=O)C[C@@H]1O [Didemnin A, didemnin A] (H-[dNMeL]T[X1]LP[NMeY](Me); ester 2-C) | 7.8 (≈ 0.00827 µM) | 58 (≈ 0.0615 µM) | – | – | – | –
3 | didemnin E | 1.1 | 7.6 | 0.8 | 5.6 | – | –
4 | CC[C@H](C)[C@H]1NC(=O)[C@@H](NC(=O)[C@@H](CC(C)C)N(C)C(=O)[C@@H]2CCCN2C(=O)C(C)O)[C@@H](C)OC(=O)[C@H](Cc2ccc(OC)cc2)N(C)C(=O)[C@@H]2CCCN2C(=O)[C@H](CC(C)C)NC(=O)[C@@H](C)C(=O)[C@H](C(C)C)OC(=O)C[C@@H]1O (stereo partly drawn) [Didemnin B, didemnin B] | – | – | 3.8 (≈ 0.00342 µM) | 15 (≈ 0.0135 µM) | – | –
5 | 3-hydroxydecanoyl-L-Gln-L-Gln-L-Gln-L-Gln-didemnin B [Didemnin Y] | 6.4 | 21 | 4.8 | 20 | inhibit the growth | 6.4
6 | (R)-3-hydroxydecanoyl-L-Gln-L-Gln-L-Gln-didemnin B [Didemnin X] | 4 | 17 | 4.8 | 17 | inhibit the growth | 4
